What was measured:
THP-1 cells = assay: TNF-alpha production by macrophages (ELISA); format: cell-based, human; details: 1 mg/mL opsonized zymosan, 24 hours, n=4, FIG. 8, read-out: IC50 TNFα production
Method: The human macrophage cell line, THP-1 is plated in a 12 well plate such that each well contains 1×10^6 cells in 2 mL of media containing 10% FCS. Opsonized zymosan is prepared by resuspending 20 mg of zymosan A in 2 mL of ddH2O and homogenizing until a uniform suspension is obtained. Homogenized zymosan is pelleted at 250 g and resuspended in 4 mL of human serum for a final concentration of 5 mg/mL. and incubated in a 37° C. water bath for 20 minutes to enable opsonization. Bay 11-7082 is prepared in DMSO at a concentration of 10^−2 M and serially diluted 10-fold to give a range of stock concentrations (10^−8 M to 10^−2 M) (J. Immunol. (2000) 165: 411-418; J. Immunol. (2000) 164: 4804-4811; J. Immunol. Meth. (2000) 235 (1-2): 33-40).
THP-1 cells are stimulated to produce TNFα by the addition of 1 mg/mL opsonized zymosan. […]
After a 24 hour stimulation, supernatants are collected to quantify TNFα production. TNFα concentrations in the supernatants are determined by ELISA using recombinant human TNFα to obtain a standard curve. […] The dilution of Capture Antibody used is lot-specific and is determined empirically. […] Stop Solution (2 NH2SO4) is then added to the wells and a yellow colour reaction is read at 450 nm with λ correction at 570 nm. Mean absorbance is determined from triplicate data readings and the mean background is subtracted. […]

human fibroblasts = assay: Screening assay for cell proliferation (CYQUANT); format: cell-based; details: Fibroblast, 72 hours, n=4 replicate experiments, FIG. 6
Method: Fibroblasts at 70-90% confluency are trypsinized, replated at 600 cells/well in media in 96-well plates and allowed to attachment overnight. […] Each drug concentration is tested in triplicate wells.
To terminate the assay, the media is removed by gentle aspiration. […] Plates are incubated at room temperature, protected from light for 3-5 minutes.

Row | IC50 (THP-1 cells) [µM] | SMILES | IC50 (human fibroblasts) [µM]
1 | 0.81 | Cc1ccc(S(=O)(=O)/C=C/C#N)cc1 [Bay 11-7082] | 
2 |  | O=C1c2c(O)ccc(O)c2C(=O)c2c(NCCNCCO)ccc(NCCNCCO)c21 [Mitoxantrone, 9,10-Anthracenedione, 1,4-dihydroxy-5,8-bis[[2-[(2-hydroxyethyl)amino]ethyl]amino]-] | 0.02

Reference: patent US9326934B2, “Drug delivery from rapid gelling polymer composition” (Angiotech International AG, priority 2002, dated 2016)
